Assays:
potassium arsenate = compound: O=[As]([O-])(O)O.[K+] [potassium arsenate]; assay: thermal stability z-score vs DMSO; higher = more thermally stabilized by treatment; conditions: HeLa; arsenate concentration 1 mM
Method: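 Cellular thermal proteome profiling in HeLa cells treated with 1 mM arsenate for 1 h (DMSO pretreatment), heated to ten temperatures (37-66.3 °C). Soluble protein was quantified by TMT mass spectrometry relative to DMSO controls; the thermal stability score was transformed to a z-score; mean of n = 3 experiments.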

lipoamide = compound: NC(=O)CCCCC1CCSS1 [lipoamide]; assay: as above; conditions: HeLa, lipoamide concentration 100 µM
Method: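 Cellular thermal proteome profiling in HeLa cells. Cells were treated with 100 µM lipoamide for 1 h, with or without 1 mM arsenate for a further 1 h, then heated to ten temperatures (37-66.3 °C), and soluble protein was quantified by TMT mass spectrometry relative to 0.1% DMSO controls. The thermal stability score (sum of log2 fold changes minus the abundance score) was transformed to a z-score; mean of n = 3 experiments.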

[1] = arsenate co-treatment: 1 mM arsenate 1 h
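Further: each temperature applied for 3 min, abundance score taken as mean log2 fold change at the two lowest temperatures, z-score obtained by mean subtraction and division by SD.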

Sequence of UniProt Q8TBP5 (Q8TBP5 whole entry): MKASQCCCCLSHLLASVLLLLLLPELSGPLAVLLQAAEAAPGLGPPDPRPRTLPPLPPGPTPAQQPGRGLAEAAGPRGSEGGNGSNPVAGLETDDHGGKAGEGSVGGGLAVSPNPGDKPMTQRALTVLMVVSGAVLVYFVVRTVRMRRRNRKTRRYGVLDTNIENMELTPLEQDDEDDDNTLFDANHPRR
Sequence of UniProt Q01658 (Q01658 whole entry): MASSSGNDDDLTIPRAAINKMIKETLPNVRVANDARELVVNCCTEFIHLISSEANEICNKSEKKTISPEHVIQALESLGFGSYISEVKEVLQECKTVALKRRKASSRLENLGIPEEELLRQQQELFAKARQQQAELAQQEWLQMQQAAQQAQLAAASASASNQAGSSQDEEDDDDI
Sequence of UniProt Q92609 (Q92609 whole entry): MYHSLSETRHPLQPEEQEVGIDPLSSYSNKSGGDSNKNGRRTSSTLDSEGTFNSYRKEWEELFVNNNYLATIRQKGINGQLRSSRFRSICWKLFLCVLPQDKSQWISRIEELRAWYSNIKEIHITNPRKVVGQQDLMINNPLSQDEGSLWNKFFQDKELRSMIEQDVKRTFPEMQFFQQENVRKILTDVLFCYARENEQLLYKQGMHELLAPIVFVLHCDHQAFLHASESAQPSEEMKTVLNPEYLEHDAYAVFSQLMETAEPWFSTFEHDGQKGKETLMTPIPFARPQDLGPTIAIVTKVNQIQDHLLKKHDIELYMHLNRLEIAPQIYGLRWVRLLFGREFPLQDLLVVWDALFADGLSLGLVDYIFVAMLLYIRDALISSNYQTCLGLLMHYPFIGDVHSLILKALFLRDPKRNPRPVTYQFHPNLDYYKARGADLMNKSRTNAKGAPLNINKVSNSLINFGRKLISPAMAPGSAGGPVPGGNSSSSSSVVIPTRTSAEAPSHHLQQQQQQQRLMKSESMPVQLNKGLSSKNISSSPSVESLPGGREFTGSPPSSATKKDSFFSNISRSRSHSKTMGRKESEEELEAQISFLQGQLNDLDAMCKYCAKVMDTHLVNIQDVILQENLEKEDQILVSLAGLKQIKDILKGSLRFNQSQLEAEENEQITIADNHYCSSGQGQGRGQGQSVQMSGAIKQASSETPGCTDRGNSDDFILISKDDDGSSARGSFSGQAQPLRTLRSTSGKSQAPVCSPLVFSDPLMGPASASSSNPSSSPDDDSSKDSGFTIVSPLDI
Sequence of UniProt A5PLL7 (A5PLL7 whole entry): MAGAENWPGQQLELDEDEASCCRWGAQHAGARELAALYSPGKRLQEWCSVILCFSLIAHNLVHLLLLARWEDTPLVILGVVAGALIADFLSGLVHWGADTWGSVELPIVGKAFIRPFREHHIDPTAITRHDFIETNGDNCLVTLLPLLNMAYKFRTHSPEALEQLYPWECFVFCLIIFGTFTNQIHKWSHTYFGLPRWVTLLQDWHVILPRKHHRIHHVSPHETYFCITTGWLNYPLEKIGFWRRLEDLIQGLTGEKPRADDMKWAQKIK
Sequence of UniProt Q15057 (Q15057 whole entry): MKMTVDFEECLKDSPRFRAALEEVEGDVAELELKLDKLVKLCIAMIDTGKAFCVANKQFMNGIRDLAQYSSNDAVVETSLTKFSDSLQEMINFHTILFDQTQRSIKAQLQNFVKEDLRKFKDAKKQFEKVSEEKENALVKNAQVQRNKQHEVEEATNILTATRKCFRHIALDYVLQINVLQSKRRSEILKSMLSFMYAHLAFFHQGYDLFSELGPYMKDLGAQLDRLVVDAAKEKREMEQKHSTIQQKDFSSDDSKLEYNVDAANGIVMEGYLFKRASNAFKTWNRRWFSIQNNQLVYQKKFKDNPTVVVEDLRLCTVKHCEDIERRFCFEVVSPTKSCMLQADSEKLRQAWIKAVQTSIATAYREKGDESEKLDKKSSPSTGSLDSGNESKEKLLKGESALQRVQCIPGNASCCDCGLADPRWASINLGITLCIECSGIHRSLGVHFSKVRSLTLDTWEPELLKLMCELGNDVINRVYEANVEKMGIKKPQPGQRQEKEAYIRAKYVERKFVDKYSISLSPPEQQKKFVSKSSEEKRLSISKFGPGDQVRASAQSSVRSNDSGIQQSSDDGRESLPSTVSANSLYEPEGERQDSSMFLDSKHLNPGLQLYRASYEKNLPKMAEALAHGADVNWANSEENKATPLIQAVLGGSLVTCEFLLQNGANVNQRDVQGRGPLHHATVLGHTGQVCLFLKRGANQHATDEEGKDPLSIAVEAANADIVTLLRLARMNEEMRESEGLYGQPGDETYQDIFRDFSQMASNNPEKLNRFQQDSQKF
Sequence of UniProt Q8WU90 (Q8WU90 whole entry): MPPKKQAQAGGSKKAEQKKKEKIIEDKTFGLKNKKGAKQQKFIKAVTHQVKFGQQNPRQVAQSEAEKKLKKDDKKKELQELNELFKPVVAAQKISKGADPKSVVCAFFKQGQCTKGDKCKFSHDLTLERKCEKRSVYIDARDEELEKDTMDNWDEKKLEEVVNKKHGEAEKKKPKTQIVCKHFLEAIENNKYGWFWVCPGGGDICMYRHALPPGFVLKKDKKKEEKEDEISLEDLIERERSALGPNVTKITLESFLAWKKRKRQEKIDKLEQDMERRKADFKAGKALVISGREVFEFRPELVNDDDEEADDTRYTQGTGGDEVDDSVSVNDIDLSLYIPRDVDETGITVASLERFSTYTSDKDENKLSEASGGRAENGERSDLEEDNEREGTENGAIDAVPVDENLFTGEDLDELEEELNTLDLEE
Sequence of UniProt Q8IW35 (Q8IW35 whole entry): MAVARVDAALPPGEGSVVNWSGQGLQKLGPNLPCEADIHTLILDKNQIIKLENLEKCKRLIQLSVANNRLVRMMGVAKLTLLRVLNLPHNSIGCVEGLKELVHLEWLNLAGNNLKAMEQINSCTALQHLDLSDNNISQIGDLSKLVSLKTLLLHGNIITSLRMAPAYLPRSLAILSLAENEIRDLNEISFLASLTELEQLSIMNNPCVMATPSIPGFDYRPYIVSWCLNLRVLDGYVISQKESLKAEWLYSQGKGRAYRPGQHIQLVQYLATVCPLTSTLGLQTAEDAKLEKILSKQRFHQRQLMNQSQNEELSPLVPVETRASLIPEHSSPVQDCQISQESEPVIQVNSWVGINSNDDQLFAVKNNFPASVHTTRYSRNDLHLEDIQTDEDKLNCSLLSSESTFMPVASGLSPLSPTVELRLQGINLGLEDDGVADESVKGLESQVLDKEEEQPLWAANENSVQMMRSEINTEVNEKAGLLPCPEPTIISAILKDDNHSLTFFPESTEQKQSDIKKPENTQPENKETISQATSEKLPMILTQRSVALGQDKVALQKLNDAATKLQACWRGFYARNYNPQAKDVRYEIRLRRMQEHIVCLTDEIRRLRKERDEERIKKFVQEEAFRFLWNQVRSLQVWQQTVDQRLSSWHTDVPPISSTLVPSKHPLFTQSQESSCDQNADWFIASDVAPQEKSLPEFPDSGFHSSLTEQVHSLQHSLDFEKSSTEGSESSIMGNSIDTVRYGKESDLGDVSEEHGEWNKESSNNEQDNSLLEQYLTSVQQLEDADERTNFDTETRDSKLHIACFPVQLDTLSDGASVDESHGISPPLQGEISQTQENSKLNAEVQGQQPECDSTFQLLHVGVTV
Sequence of UniProt Q9Y3Y2 (Q9Y3Y2 whole entry): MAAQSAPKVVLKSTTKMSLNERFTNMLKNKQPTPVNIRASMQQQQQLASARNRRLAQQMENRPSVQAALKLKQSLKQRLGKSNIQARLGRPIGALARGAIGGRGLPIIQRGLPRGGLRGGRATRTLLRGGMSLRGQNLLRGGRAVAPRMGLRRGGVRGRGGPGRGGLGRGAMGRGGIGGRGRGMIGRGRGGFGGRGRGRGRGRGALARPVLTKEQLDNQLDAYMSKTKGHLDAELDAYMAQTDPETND
Sequence of UniProt P13674 (P13674 whole entry): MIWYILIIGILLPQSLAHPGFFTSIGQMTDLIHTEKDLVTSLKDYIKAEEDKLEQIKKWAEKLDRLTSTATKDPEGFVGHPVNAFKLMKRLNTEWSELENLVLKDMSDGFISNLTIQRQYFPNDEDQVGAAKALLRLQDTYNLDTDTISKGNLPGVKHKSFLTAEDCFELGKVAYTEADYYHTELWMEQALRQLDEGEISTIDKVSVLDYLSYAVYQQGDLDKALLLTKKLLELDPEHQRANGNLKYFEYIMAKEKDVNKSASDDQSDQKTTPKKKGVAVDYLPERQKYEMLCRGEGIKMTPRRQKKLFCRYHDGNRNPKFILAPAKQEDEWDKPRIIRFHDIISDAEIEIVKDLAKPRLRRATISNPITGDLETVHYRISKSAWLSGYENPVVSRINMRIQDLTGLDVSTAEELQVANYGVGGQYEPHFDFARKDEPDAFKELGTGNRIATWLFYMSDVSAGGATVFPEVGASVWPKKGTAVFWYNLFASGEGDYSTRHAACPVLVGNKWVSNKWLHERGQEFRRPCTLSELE
Sequence of UniProt Q8N884 (Q8N884 whole entry): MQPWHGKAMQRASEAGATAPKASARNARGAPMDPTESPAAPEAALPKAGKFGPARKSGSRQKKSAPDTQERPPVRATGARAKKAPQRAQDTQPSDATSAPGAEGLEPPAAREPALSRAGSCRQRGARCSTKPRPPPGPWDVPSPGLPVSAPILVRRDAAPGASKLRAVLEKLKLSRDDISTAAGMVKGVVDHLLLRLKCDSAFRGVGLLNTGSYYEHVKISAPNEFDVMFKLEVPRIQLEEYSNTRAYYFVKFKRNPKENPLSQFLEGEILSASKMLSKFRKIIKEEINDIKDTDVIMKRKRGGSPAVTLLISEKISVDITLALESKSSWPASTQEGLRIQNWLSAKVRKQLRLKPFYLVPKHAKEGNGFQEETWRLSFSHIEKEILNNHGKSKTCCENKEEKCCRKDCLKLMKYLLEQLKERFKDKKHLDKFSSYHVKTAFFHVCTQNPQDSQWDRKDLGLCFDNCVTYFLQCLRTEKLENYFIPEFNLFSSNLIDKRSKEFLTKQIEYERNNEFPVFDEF
Sequence of UniProt Q9Y2Y0 (Q9Y2Y0 whole entry): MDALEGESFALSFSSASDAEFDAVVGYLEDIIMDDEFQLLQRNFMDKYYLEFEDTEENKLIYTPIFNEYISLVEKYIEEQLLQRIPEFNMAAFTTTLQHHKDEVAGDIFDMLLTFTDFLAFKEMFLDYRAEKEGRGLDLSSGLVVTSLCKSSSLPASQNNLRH

Target	thermal stability z-score (potassium arsenate)	thermal stability z-score (lipoamide; [1])	thermal stability z-score (lipoamide; arsenate co-treatment: none)
TMEM189 (UniProt A5PLL7)	-0.167	-0.772	-0.595
ARL2BP (UniProt Q9Y2Y0)	-0.326	-0.0213	0.0527
PHF14 (UniProt O94880)	-0.242	-0.247	0.314
CAPN15 (UniProt O75808)	-0.24	0.0525	0.0796
FAM174A (UniProt Q8TBP5)	1.14	0.351	0.647
NIT2 (UniProt Q9NQR4)	0.0727	0.25	0.109
RMDN3 (UniProt Q96TC7)	0.289	-0.522	-0.501
DR1 (UniProt Q01658)	-0.043	0.466	0.257
ACAP2 (UniProt Q15057)	-0.178	-0.177	0.0236
TP53I3 (UniProt Q53FA7)	-0.359	0.135	-0.155
ZC3H15 (UniProt Q8WU90)	0.0266	-0.032	-0.0996
NFX1 (UniProt Q12986)	-3.38	-1.53	-1.5
MRPL3 (UniProt P09001)	-0.132	-0.851	-0.0275
KIF14 (UniProt Q15058)	-0.00998	0.0801	0.0434
GNPDA1 (UniProt P46926)	0.272	0.699	0.687
WDFY2 (UniProt Q96P53)	-0.0121	-0.402	-0.11
DTL (UniProt Q9NZJ0)	-0.408	-0.0028	-0.0193
KLHL13 (UniProt Q9P2N7)	0.825	-0.764	-0.242

Target	thermal stability z-score (potassium arsenate)	thermal stability z-score (lipoamide; [1])	thermal stability z-score (lipoamide; arsenate co-treatment: none)
MTG1 (UniProt Q9BT17)	0.195	0.0673	0.0916
BCAP29 (UniProt Q9UHQ4)	-0.458	0.262	0.211
P4HA1 (UniProt P13674)	1.27	-4.31	-3.57
CEP97 (UniProt Q8IW35)	-0.411	-0.477	0.495
TMEM115 (UniProt Q12893)	-0.307	0.0848	0.637
YIPF3 (UniProt Q9GZM5)	-0.0851	-0.157	0.0301
PANK3 (UniProt Q9H999)	0.672	1.22	0.571
ARPC4 (UniProt P59998)	0.369	1.12	0.913
CHTOP (UniProt Q9Y3Y2)	0.73	1.86	0.726
PDXDC1 (UniProt Q6P996)	0.73	-0.964	-0.497
MB21D1 (UniProt Q8N884)	0.109	0.409	0.258
IL18 (UniProt Q14116)	-0.226	0.282	-0.0498
RNF34 (UniProt Q969K3)	-0.392	-0.0298	0.0211
STX6 (UniProt O43752)	-0.486	-0.996	-0.712
TBC1D5 (UniProt Q92609)	-0.0438	-0.097	-0.749
NIP7 (UniProt Q9Y221)	-0.111	0.337	-0.869
EPB41L1 (UniProt Q9H4G0)	0.139	-0.509	-0.127
